Some test systems named below: U-251; SF-295; SR; HCT-15; NCI-H460; MDA-MB-231; K562; MOLT-4; SK-OV-3; SF-268; NCI-H522; SNB-19; COLO 205; T47D; SN12C; OVCAR-5; A498; ACHN; HOP-92.
Holding throughout (assay): NCI tumour cell line growth inhibition, 48 h

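Grown in 96-well plates, cells were treated for 48 hours with each compound at five concentrations. Insufficient inhibition: endpoint recorded as highest concentration tested. At the GI50, growth is halved.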 Activity calls are given as the source filed them. Cut-off read from the data, not from the text of the source: active = GI50 up to about 1.1 µM and inactive = higher. Bounds are passed on as bounds.

As for `CCOC(=O)c1c(-c2ccccc2)nc2c(OC)nccn12`, the GI50 in the assay with U-251 was > 100 µM (inactive); with SF-295, > 100 µM (inactive); with SR, > 100 µM (inactive); with HCT-15, over 100 µM; with NCI-H460, > 100 µM (inactive); in the assay on MDA-MB-231 it was > 100 µM (inactive). In addition, the GI50 was > 100 µM (inactive) in the assay on K562; 14.5 µM (inactive) in the assay with MOLT-4; > 100 µM (inactive) in the assay on SK-OV-3; > 100 µM (inactive) with SF-268; > 100 µM (inactive) with NCI-H522; > 100 µM (inactive) in the assay with SNB-19. The values for the GI50 with COLO 205, in the assay with T47D and with SN12C were > 100 µM (inactive), 25.4 µM (inactive) and > 100 µM (inactive), respectively.
`COc1cc2nc(-c3cccs3)nc(N3C(c4ccc(O)cc4)=NNC(=O)c4ccccc43)c2cc1OC`: the GI50 in the assay on U-251 is 27.8 µM (inactive); in the assay with OVCAR-5 it was 28.8 µM (inactive); in the assay on SF-295 it was 19.5 µM (inactive); in the assay on HCT-15, 32 µM; in the assay on NCI-H460 it was 26.5 µM (inactive); with MDA-MB-231, 18.9 µM (inactive). The GI50 in the assay on K562 was 17.5 µM (inactive); in the assay with SK-OV-3, 38 µM (inactive); in the assay on SF-268, 28.7 µM (inactive); in the assay with NCI-H522 it was 86.9 µM (inactive); with SNB-19, 35.6 µM (inactive); with COLO 205, 20.8 µM (inactive). Moreover, the GI50 is > 100 µM (inactive) in the assay with A498, 29.2 µM (inactive) with T47D, 24.2 µM (inactive) in the assay on SN12C and 23.7 µM (inactive) in the assay with ACHN.
Consider `COc1ccc(-c2nc3ncccn3c2-c2ccc(S(C)(=O)=O)cc2)cc1`, for which the GI50 is > 100 µM (inactive) with U-251; > 100 µM (inactive) in the assay with OVCAR-5; > 100 µM (inactive) with SF-295; 14.1 µM (inactive) in the assay on HOP-92; 47.6 µM (inactive) in the assay on SR; over 100 µM in the assay with HCT-15. Moreover, the GI50 in the assay on NCI-H460 was 66.4 µM (inactive); in the assay on MDA-MB-231, > 100 µM (inactive); in the assay with K562 it was > 100 µM (inactive); in the assay with MOLT-4, > 100 µM (inactive); with SK-OV-3, 90.4 µM (inactive); with SF-268 it was 35.2 µM (inactive). The GI50 with SNB-19, in the assay with COLO 205, in the assay on SN12C and in the assay on ACHN was > 100 µM (inactive) throughout.
For `N#C/C(=C\c1ccccc1)c1nc(-c2cc3ccccc3oc2=O)cs1`, the GI50 in the assay on U-251 was 41.6 µM (inactive); in the assay on OVCAR-5, > 100 µM (inactive); with SF-295 it was > 100 µM (inactive); in the assay on HOP-92 it was 32.1 µM (inactive); in the assay with SR, > 100 µM (inactive); with HCT-15, over 100 µM. The GI50 was > 100 µM (inactive) in the assay on NCI-H460; 71.3 µM (inactive) in the assay with MDA-MB-231; > 100 µM (inactive) with K562; > 100 µM (inactive) with MOLT-4; 72.8 µM (inactive) with SK-OV-3; 60 µM (inactive) in the assay with SF-268. The GI50 is > 100 µM (inactive) with NCI-H522; 74.3 µM (inactive) with SNB-19; > 100 µM (inactive) with COLO 205; > 100 µM (inactive) in the assay on T47D; > 100 µM (inactive) in the assay with SN12C; 38.6 µM (inactive) in the assay on ACHN.
For `CCCCCCOC(=O)C(N)Cc1ccc(OC)cc1` (stereo not drawn), the GI50 is > 100 µM (inactive) with U-251; > 100 µM (inactive) in the assay on OVCAR-5; > 100 µM (inactive) in the assay with SF-295; 5.55 µM (inactive) with HOP-92; > 100 µM (inactive) in the assay with SR; over 100 µM in the assay with HCT-15. In addition, the GI50 in the assay on NCI-H460, with MDA-MB-231, in the assay on K562, in the assay on MOLT-4, with SK-OV-3 and in the assay with SF-268 was > 100 µM (inactive) throughout. Also, the GI50 with NCI-H522, in the assay on SNB-19, with COLO 205, in the assay on T47D, with SN12C and with ACHN was > 100 µM (inactive) each time.

These data come from ChEMBL document CHEMBL1201862, “PubChem BioAssay data set” (2004).
